Reference: PMC11571207, “Stereorandomized Oncocins with Preserved Ribosome Binding and Antibacterial Activity” (Journal of Medicinal Chemistry, 2024)
Read-outs that look alike come from different tables or passages of the source. No end group written: not given here.

Tests used:
E. cloacae = assay: microbe, parasite or virus in culture; settings: for MIC E. cloacae, 12.5% MHB: 12.5% MHB pH 7.4; for MIC E. cloacae, 12.5% MHB / MIC E. cloacae, full MHB: 16–20 h at 37 °C; for MIC E. cloacae, full MHB: full MHB pH 7.4; for MIC E. cloacae: supplement CSV
Protocol: (§1) Minimum inhibitory concentration assay
(§2) Antimicrobial activity was assayed against P. aeruginosa PAO1, K. pneumoniae NCTC418, E. coli W3110, A. baumannii ATCC 19606, methicillin-resistant S. aureus COL (MRSA), and for selected peptides on P. aeruginosa PA14 and the polymyxin-B-resistant derivative PA14 2P4, as well as the clinical isolates ZEM-1A and ZEM9A, K. pneumoniae OXA-48, S. aureus Newman, Enterobacter cloacae and Burkholderia cenocepacia. The minimal inhibitory concentration (MIC) was determined by using broth microdilution method. A colo ny of bacteria was picked and grown in Luria-Bertani (LB) medium overnight at 37°C. For E. coli BW25113 sbmA::kan the medium was supplemented with 25 mg/L of kanamycin. The next day, the culture was then regrown in LB medium to log phase (OD600 = 0.6 to 0.8), which lasted approximately 4 h, and diluted to an OD600 of 0.022 in the desired medium. Stock solutions of 1 mg/mL of the samples were prepared in sterilized milliQ water and diluted to the beginning concentration of 64 μg/mL in 300 μL Mueller Hinton (MH)-medium. The diluted samples were added to first well of 96-well microtiter plate (TPP, untreated, Faust Laborbedarf, AG, Schaffhausen) and diluted serially by ½. Finally, 4 μL of the bacterial suspension was inoculated into the sample solutions (150 μL/well) with a final inoculation of about 5∙10^5 CFU/mL. The plates were then incubated at 37°C for 15-18h. For each assay, sterility (broth only) and growth control (broth with bacterial inoculum, without antibiotics) were checked with two columns in the plate. The next day, 15 μL of 3-(4,5-dimethylthiazol-2-yl)-2,5-diphenyltetrazolium bromide (MTT) was added to each well of the plate, such a way that MIC was defined as the lowest concentration of the peptide that inhibited visible growth of the tested

K. pneumoniae OXA-48 = assay: microbe, parasite or virus in culture; settings: for MIC K. pneumoniae OXA-48, 12.5% MHB / MIC K. pneumoniae OXA-48, full MHB: carbapenem-resistant, 16–20 h at 37 °C; for MIC K. pneumoniae OXA-48, 12.5% MHB: 12.5% MHB pH 7.4; for MIC K. pneumoniae OXA-48, full MHB: full MHB pH 7.4; for MIC K. pneumoniae OXA-48: supplement CSV
Protocol: as §1, §2

[1] = tested on: P. aeruginosa PA14 2P4 (pmrB); assay: microbe, parasite or virus in culture; settings: for MIC P. aeruginosa PA14 2P4 (pmrB), 12.5% MHB / MIC P. aeruginosa PA14 2P4 (pmrB), full MHB: polymyxin B resistant strain, 16–20 h at 37 °C; for MIC P. aeruginosa PA14 2P4 (pmrB), 12.5% MHB: 12.5% MHB pH 7.4; for MIC P. aeruginosa PA14 2P4 (pmrB), full MHB: full MHB pH 7.4; for MIC P. aeruginosa PA14 2P4: supplement CSV
Protocol: as §1, §2

P. aeruginosa PA14 = assay: microbe, parasite or virus in culture; settings: for MIC P. aeruginosa PA14, 12.5% MHB: 12.5% MHB pH 7.4; for MIC P. aeruginosa PA14, 12.5% MHB / MIC P. aeruginosa PA14, full MHB: 16–20 h at 37 °C, two different duplicate MIC determinations; for MIC P. aeruginosa PA14, full MHB: full MHB pH 7.4; for MIC P. aeruginosa PA14: supplement CSV
Protocol: as §1, §2

P. aeruginosa ZEM-1A = assay: microbe, parasite or virus in culture; settings: for MIC P. aeruginosa ZEM-1A, 12.5% MHB / MIC P. aeruginosa ZEM-1A, full MHB: clinical isolate, 16–20 h at 37 °C, cells marked c: single measurement (in duplicates); for MIC P. aeruginosa ZEM-1A, 12.5% MHB: 12.5% MHB pH 7.4; for MIC P. aeruginosa ZEM-1A, full MHB: full MHB pH 7.4; for MIC P. aeruginosa ZEM-1A: supplement CSV
Protocol: as §1, §2

P. aeruginosa ZEM9A = assay: microbe, parasite or virus in culture; settings: for MIC P. aeruginosa ZEM9A, 12.5% MHB / MIC P. aeruginosa ZEM9A, full MHB: clinical isolate, 16–20 h at 37 °C; for MIC P. aeruginosa ZEM9A, 12.5% MHB: 12.5% MHB pH 7.4; for MIC P. aeruginosa ZEM9A, full MHB: full MHB pH 7.4; for MIC P. aeruginosa ZEM9A: supplement CSV
Protocol: as §1, §2

[2] = tested on: E. coli ribosome, U2506 of the 23S rRNA; assay: Ribosome footprinting (CMCT modification of U2506); format: binding; settings: 1 μM peptide, 10.5 μM CMCT, purified E. coli ribosomes (5 pmol), 25 °C; primer extension, sequencing gel
Protocol: A 5 mL culture of E. coli MG1655 (WT-cells) was grown in LB overnight (220 rpm, 37 °C). One liter LB medium was inoculated, and bacteria were grown to OD = 0.6 (220 rpm. 37 °C); cells were centrifuged in centrifuge bottles, and the pellet was resuspended in ice-cold water and transferred in 50 mL falcon tubes. Falcon tubes were centrifuged, the supernatant was removed, the pellet was resuspended in 15 mL polysome buffer (TRIS/HCl pH 7.5 20 mM, NH4Cl 100 mM, MgCl2 10 mM, EDTA 0.5 mM, β-mercaptoethanol 60 mM), frozen dropwise in N2 (l), and stored at −80 °C. The cells were ground in CryoMil with the standard program (1 min precooling, 2 min grinding 5/s, 2 min cooling, 2 min grinding 5/s). The powder was transferred in 50 mL falcon tubes containing N2 (l) and stored at −80 °C. The lysates were thawed with a water bath (30 °C), put on ice, transferred to precooled Eppendorf tubes, and centrifuged (5000 g, 2 min, 4 °C). The clear lysate was transferred to new precooled tubes, centrifuged (14 000 g, 10 min, 4 °C), and the supernatant was transferred to new precooled tubes. 300 mL of clear lysate was loaded on a 10–50% sucrose gradient in CMCT buffer (K-borate buffer pH 8 80 mM, MgCl2 25 mM, NH4Cl 100 mM) and ultracentrifuged (3 h, 234 050 g, 4 °C). The fractions containing monosomes and polysomes were collected and ultracentrifuged overnight (16 h, 260 800 g, 4 °C). The supernatant was discarded, and the pellet was washed with ice-cold CMCT buffer. The ribosomes were resuspended in 100 μL CMCT buffer with a mini magnetic stirring bar and stored on ice. The concentration of ribosomes was measured in 1/200 dilution in water.
Ribosomes (5 pmol) were mixed with 8 μL of CMCT buffer, the compound of interest 1 μM, and water to a final volume of 20 μL in a precooled tube and incubated at 25 °C for 10 min. 20 μL of CMCT (10.5 μM) in water was added and incubated at 25 °C for 30 min. The reaction was stopped with 160 μL of EDTA (30 μM), and the samples were stored on ice.
160 μL portion of RNA resuspension buffer and 40 μL of 10% SDS were added, and the samples were vigorously resuspended. 400 μL of prewarmed acid phenol was added, and the samples were incubated on a thermomixer (5 min, 1200 rpm, 65 °C). The samples were put on ice for 5 min and centrifuged (5 min, 14 000 g, RT). The watery phase was transferred to a new precooled tube, 400 μL of phenol–chloroform–isoamyl alcohol (4 °C) was added, and the samples were mixed (5 min, 1200 rpm, RT). The samples were centrifuged again (5 min, 14 000g, RT), and the watery phase was transferred to another precooled tube. 34 μL of 3 M NaOAc pH 5.5, 0.8 μL of Glycoblue and 400 μL of isopropanol were added, and the samples were incubated for 3 h at −80 °C. The samples were then centrifuged (40 min, 21 000g, 4 °C), and the pellet was washed with ice-cold 70% EtOH. The residual liquid was removed, and the samples were dried (5 min, 37 °C). The samples were resuspended in 20 μL of water, the concentration was measured, and the samples were −80 °C.
Primers designed to probe the positions 2506 of the 23S rRNA (5-[sequence]-3′) were labeled with radioactive phosphate (γ^32 P-ATP). […] To prepare primers for one reaction, 1 μL of primer (0.3 μM), 0.4 μL of 5× PNK-buffer, 0.25 μL of water, 0.2 μL of γ^32 P-ATP, and 0.15 μL of T4 PNK were mixed and incubated at 37 °C.

[3] = tested on: P. aeruginosa PA14 4.13 (phoQ); settings: for MIC P. aeruginosa PA14 4.13 (phoQ), 12.5% MHB / MIC P. aeruginosa PA14 4.13 (phoQ), full MHB: polymyxin B resistant strain, 16–20 h at 37 °C; for MIC P. aeruginosa PA14 4.13 (phoQ), 12.5% MHB: 12.5% MHB pH 7.4; for MIC P. aeruginosa PA14 4.13 (phoQ), full MHB: full MHB pH 7.4; for MIC P. aeruginosa PA14 4.13: supplement CSV

Row | Substance | MIC E. cloacae, 12.5% MHB (E. cloacae) [µg/mL] | MIC E. cloacae, full MHB (E. cloacae) [µg/mL] | MIC E. cloacae (E. cloacae; 12.5% MH pH 7.4) [µg/mL] | MIC K. pneumoniae OXA-48, 12.5% MHB (K. pneumoniae OXA-48) | MIC K. pneumoniae OXA-48, full MHB (K. pneumoniae OXA-48) | MIC K. pneumoniae OXA-48 (K. pneumoniae OXA-48; 12.5% MH pH 7.4) [µg/mL] | MIC K. pneumoniae OXA-48 (K. pneumoniae OXA-48; full MH pH 7.4) [µg/mL] | MIC P. aeruginosa PA14 2P4 (pmrB), 12.5% MHB [1] [µg/mL] | MIC P. aeruginosa PA14 2P4 (pmrB), full MHB [1] [µg/mL] | MIC P. aeruginosa PA14 2P4 ([1]; 12.5% MH pH 7.4) [µg/mL] | MIC P. aeruginosa PA14 2P4 ([1]; full MH pH 7.4) [µg/mL] | MIC P. aeruginosa PA14, 12.5% MHB (P. aeruginosa PA14) | MIC P. aeruginosa PA14, full MHB (P. aeruginosa PA14) | MIC P. aeruginosa PA14 (P. aeruginosa PA14; 12.5% MH pH 7.4) [µg/mL] | MIC P. aeruginosa PA14 (P. aeruginosa PA14; full MH pH 7.4) [µg/mL] | MIC P. aeruginosa ZEM-1A, 12.5% MHB (P. aeruginosa ZEM-1A) | MIC P. aeruginosa ZEM-1A, full MHB (P. aeruginosa ZEM-1A) | MIC P. aeruginosa ZEM-1A (P. aeruginosa ZEM-1A; 12.5% MH pH 7.4) [µg/mL] | MIC P. aeruginosa ZEM-1A (P. aeruginosa ZEM-1A; full MH pH 7.4) [µg/mL] | MIC P. aeruginosa ZEM9A, 12.5% MHB (P. aeruginosa ZEM9A) | further results
1 | VDKPPYLPRPRPPRRIYNR [sr14Nterm-Onc] (VDKPPYLPRPRPPRRIYNR-NH2; also: residues 1-14 stereorandomized (1:1 L/D mixture)) | 8 | > 64 | 8 | >64/>64 μg/mL | >64/>64 μg/mL | >64 | >64 | 16 | > 64 | 16 | >64 | >64/64 μg/mL | >64/64 μg/mL | 64 | >64 | >64/>64 ^c μg/mL | >64/>64 ^c μg/mL | >64 | >64 | >64/64 μg/mL | MIC E. cloacae (E. cloacae; full MH pH 7.4): >64 µg/mL; MIC P. aeruginosa ZEM9A, full MHB (P. aeruginosa ZEM9A): >64/64 μg/mL; MIC P. aeruginosa ZEM9A (P. aeruginosa ZEM9A; 12.5% MH pH 7.4): 64 µg/mL; MIC P. aeruginosa ZEM9A (P. aeruginosa ZEM9A; full MH pH 7.4): >64 µg/mL; Protection of U2506 of 23S rRNA from CMCT modification (band at C2507) [2]: did not protect U2506 from CMCT modification; MIC P. aeruginosa PA14 4.13 (phoQ), 12.5% MHB [3]: 32 µg/mL; MIC P. aeruginosa PA14 4.13 (phoQ), full MHB [3]: > 64 µg/mL; MIC P. aeruginosa PA14 4.13 ([3]; 12.5% MH pH 7.4): 32 µg/mL; MIC P. aeruginosa PA14 4.13 ([3]; full MH pH 7.4): >64 µg/mL
2 | VDKPPYLPRPRPPRRIYNR [sr-Onc] (VDKPPYLPRPRPPRRIYNR-NH2; also: all 19 residues stereorandomized (1:1 L/D mixture)) | 8 | > 64 | 8 | >64/>64 μg/mL | >64/>64 μg/mL | >64 | >64 | 16 | > 64 | 16 | >64 | 32 µg/mL | > 64 µg/mL | 32 | >64 | >64/64 ^c μg/mL | >64/64 ^c μg/mL | 64 | >64 | 32 µg/mL | MIC E. cloacae (E. cloacae; full MH pH 7.4): >64 µg/mL; MIC P. aeruginosa ZEM9A, full MHB (P. aeruginosa ZEM9A): > 64 µg/mL; MIC P. aeruginosa ZEM9A (P. aeruginosa ZEM9A; 12.5% MH pH 7.4): 32 µg/mL; MIC P. aeruginosa ZEM9A (P. aeruginosa ZEM9A; full MH pH 7.4): >64 µg/mL; Protection of U2506 of 23S rRNA from CMCT modification (band at C2507) [2]: did not protect U2506 from CMCT modification; MIC P. aeruginosa PA14 4.13 (phoQ), 12.5% MHB [3]: 16 µg/mL; MIC P. aeruginosa PA14 4.13 (phoQ), full MHB [3]: > 64 µg/mL; MIC P. aeruginosa PA14 4.13 ([3]; 12.5% MH pH 7.4): 16 µg/mL; MIC P. aeruginosa PA14 4.13 ([3]; full MH pH 7.4): >64 µg/mL
3 | polymyxin B [PMB, reference compound] | 1 to 2 | 2 | 1 to 2 | 1–2/1–2 μg/mL | 1–2/1–2 μg/mL | 1 to 2 | 1 to 2 | 1 | 4 | 1 | 4 | 1 µg/mL | < 0.5 µg/mL | 1 | <0.5 | 8 µg/mL | 16 µg/mL | 8 | 16 | 2 µg/mL | MIC P. aeruginosa ZEM9A, full MHB (P. aeruginosa ZEM9A): > 64 µg/mL; MIC P. aeruginosa ZEM9A (P. aeruginosa ZEM9A; 12.5% MH pH 7.4): 2 µg/mL; MIC P. aeruginosa ZEM9A (P. aeruginosa ZEM9A; full MH pH 7.4): >64 µg/mL; MIC P. aeruginosa PA14 4.13 (phoQ), 12.5% MHB [3]: 2/2 μg/mL; MIC P. aeruginosa PA14 4.13 (phoQ), full MHB [3]: 2/2 μg/mL; MIC P. aeruginosa PA14 4.13 ([3]; 12.5% MH pH 7.4): 2 µg/mL; MIC P. aeruginosa PA14 4.13 ([3]; full MH pH 7.4): 2 µg/mL
